# Like-named read-outs stand apart in the source and are kept apart here.
# Experiments:
# Helicoverpa armigera [1] = test system: Helicoverpa armigera; design: method as in Simmonds (2003); conditions: 10^−3 M; ref Simmonds (2003); cited from earlier work
# Helicoverpa armigera [2] = test system: Helicoverpa armigera; design: method as in Jadhav et al. (2012); conditions: 1 µg/ml; ref Jadhav et al. (2012); cited from earlier work
# Helicoverpa zea [3] = test system: Helicoverpa zea; design: method as in Simmonds (2003); conditions: 10^−3 M; ref Simmonds (2003); cited from earlier work
# Lymantria dispar = test system: Lymantria dispar; design: method as in Beninger and Abou-Zaid (1997); conditions: 0.05%, day 15; ref Beninger and Abou-Zaid (1997); cited from earlier work
# Spodoptera litura [4] = conditions: 0.7–0.8 µg/ml; ref Mallikarjuna et al. (2004); cited from earlier work
# Anticarsia gemmatalis = test system: Anticarsia gemmatalis; design: method as in Salvador et al. (2010); conditions: 0.65% (mg/ml); ref Salvador et al. (2010); cited from earlier work
# [5] = Solubility in natural deep eutectic solvents (saturated solutions, UV-VIS); type: physicochemical
# Protocol: As an extension of these studies, we have investigated the solubility of six insecticidal metabolites in a variety of NADES. The solvent selection framework consisted of the following steps: • Preliminary solvent screening: a pre-selected set of 20 NADES was used as a starting point to identify and rank potential NADES candidates (Table 3). Selection constraints were imposed on important properties such as viscosity and stability.
# • Secondary screening: solubility tests were performed to determine the best solvent for each of the metabolites. Saturated solutions, generated by adding an excess amount of each compound to different NADES, were kept under constant stirring (1100 rpm) for 24 h at 50 °C. The 20 candidates were ranked in decreasing order of solvent power. • Solubility verification: For the verification of solubilities, samples were centrifuged for 5 min at 2000 rpm and subsequently diluted suitably with methanol for spectrophotometric analysis (UV-1800 UV–VIS spectrophotometer, Shimadzu Europe GmbH, Duisburg, Germany).
# [6] = cited from earlier work
# Spodoptera litura [7] = test system: Spodoptera litura; design: method as in Jadhav et al. (2012); conditions: 1 µg/ml; ref Jadhav et al. (2012); cited from earlier work
# Phyllotreta cruciferae = test system: Phyllotreta cruciferae; design: method as in Onyilagha et al. (2012); conditions: 1 month old flea beetle, binary feeding bioassay; ref Onyilagha et al. (2012); cited from earlier work
# Acanthoscelides obtectus = test system: Acanthoscelides obtectus; design: method as in Regnault-Roger et al. (2004); conditions: adults, ref Regnault-Roger et al. (2004), cited from earlier work
# Choristoneura fumiferana = test system: Choristoneura fumiferana; design: method as in Grant and Langevin (2002); conditions: ref Grant and Langevin (2002), cited from earlier work
# Sitobion avanae [8] = test system: Sitobion avanae; design: method as in Leszczynski et al. (1995); conditions: ref Leszczynski et al. (1995), cited from earlier work
# [9] = test system: Frankliniella occidentalis; design: method as in Leiss et al. (2013); conditions: 25% of natural plant concentrations (0.53 mg/g); ref Leiss et al. (2013); cited from earlier work
# Delia radicum = test system: Delia radicum; design: method as in Jones et al. (1988); conditions: 10 mM in buffered solution; ref Jones et al. (1988); cited from earlier work
# Dalbulus maidis = test system: Dalbulus maidis; design: method as in Dowd and Vega (1996); conditions: adults, 400 ppm, in vitro bioassay; ref Dowd and Vega (1996); cited from earlier work
# Sitobion avanae [10] = test system: Sitobion avanae; design: method as in Chrzanowski et al. (2012); conditions: ref Chrzanowski et al. (2012); cited from earlier work
# Sitodiplosis mosellana = test system: Sitodiplosis mosellana; design: method as in Ding et al. (2000); conditions: constitutive levels exceeding 0.35 µg/g fresh weight (1.57 µg/g dry weight); ref Ding et al. (2000); cited from earlier work
# Etiella zinckenella = test system: Etiella zinckenella; design: method as in Hattori et al. (1992); conditions: 0.5 mg; ref Hattori et al. (1992); cited from earlier work
# Helicoverpa zea [11] = test system: Helicoverpa zea; design: method as in Summers and Felton (1994); conditions: 4 mM, ref Summers and Felton (1994), cited from earlier work
# Helicoverpa armigera [12] = test system: Helicoverpa armigera; design: method as in Joshi et al. (2014); conditions: ref Joshi et al. (2014), cited from earlier work
# Mamestra configurata = test system: Mamestra configurata; design: method as in Onyilagha et al. (2004); conditions: applied at concentration > endogenous levels, 0.05–0.45 µmol per leaf disk, choice feeding assay; ref Onyilagha et al. (2004); cited from earlier work
# Spilarctia obliqua = test system: Spilarctia obliqua; design: method as in Tripathi et al. (2011); conditions: 250 µg/g, compared with azadirachtin; ref Tripathi et al. (2011); cited from earlier work
# Plutella xylostella = test system: Plutella xylostella; design: method as in Peterson et al. (2003); conditions: ref Peterson et al. (2003); cited from earlier work
# Zygogramma exclamationis = test system: Zygogramma exclamationis; design: method as in Olson and Roseland (1991); conditions: topical application of 100 µg/ml; ref Olson and Roseland (1991); cited from earlier work
# Coptotermes formosanus = test system: Coptotermes formosanus; design: method as in Adfa et al. (2010); conditions: 5 µmol; ref Adfa et al. (2010); cited from earlier work
# Anopheles arabiensis = test system: Anopheles arabiensis; design: method as in Narayanaswamy et al. (2014); conditions: 100 µg/ml; ref Narayanaswamy et al. (2014); cited from earlier work
# Spodoptera exigua = test system: Spodoptera exigua; design: method as in Cipollini et al. (2008); conditions: individual compound in diet plugs; ref Cipollini et al. (2008); cited from earlier work
# Acyrthosiphon pisum = test system: Acyrthosiphon pisum; design: method as in Goławska and Łukasik (2012); conditions: 100 µg cm^−3; ref Goławska and Łukasik (2012); cited from earlier work
# Liriomyza trifolii = test system: Liriomyza trifolii; design: method as in Kashiwagi et al. (2005); conditions: 4.90 µg/cm^2; ref Kashiwagi et al. (2005); cited from earlier work
structure (smiles),measurement,setting,value
C[C@@H]1O[C@@H](OC[C@H]2O[C@@H](Oc3c(-c4ccc(O)c(O)c4)oc4cc(O)cc(O)c4c3=O)[C@H](O)[C@@H](O)[C@@H]2O)[C@H](O)[C@H](O)[C@H]1O [Rutin],Feeding deterrence,Helicoverpa armigera [1],Feeding deterrent at 10^−3 M
same,Feeding and larval growth,Helicoverpa armigera [2],Cessation of feeding inhibits larval growth (1 µg/ml)
same,Feeding deterrence,Helicoverpa zea [3],Feeding deterrent at 10^−3 M
same,Larval weight reduction,Lymantria dispar,Larval growth inhibitor. Larval weight reduced by 45% at 0.05% at day 15
same,Development,Spodoptera litura [4],Developmental retardation
same,Larval mortality,Spodoptera litura [4],> 60%
same,"Larval development, amount of food consumed, pupal weight",Anticarsia gemmatalis,"Larval development, amount of food consumed, and pupal weight were negatively influenced at 0.65% (mg/ml)"
same,Solubility,"[5]; 1,2-propanediol: choline chloride: water (1:1:3), water 20.04%, 24 h at 50 °C, mean ± SD, n = 3",18.46 ± 0.67 mg/g
same,Solubility increase compared to water,"[5]; PCH (1:1:3) versus water (Tables 2, 4)",fivefold
same,Solubility in NADES diluted with water,"[6]; diluted with 5–10% of water, ref Dai et al. (2013)",higher solubility
same,Solubility in NADES compared to aqueous solubility,"[6]; ref Dai et al. (2013, 2015)",significantly increased
same,"Larval development, pupal mortality, adult malformation",Spodoptera litura [7],"Larval development arrested, increased pupal mortality and malformation of adults at 1 µg/ml"
same,Feeding deterrence,Phyllotreta cruciferae,Feeding deterrent of 1 month old flea beetle (binary feeding bioassay)
same,Knockdown effect (mobility and mortality),Acanthoscelides obtectus; in vitro bioassay,Knockdown effect in bioassay: reduced mobility and increased mortality of adults
COc1cc(/C=C/C(=O)O)cc(OC)c1O [Sinapic acid],Oviposition deterrence,Choristoneura fumiferana; 78.6 nmol/cm^2,Oviposition deterrent at 78.6 nmol/cm^2
same,Phloem sap ingestion,Sitobion avanae [8]; 2.5 mM,Reduced ingestion of phloem sap at 2.5 mM
same,Solubility,[5],21.59 ± 0.24 mg/g
same,Solubility enhancement with NADES compared to aqueous solubility,[5],> 34 fold
same,Mortality of first instar larvae,[9],Significant increase in mortality of first instar larvae at 25% of natural plant concentrations (0.53 mg/g)
same,Reduction of number of eggs (oviposition deterrent),Delia radicum,Oviposition deterrent; 10 mM in buffered solution reduced number of eggs by 60–70%
COc1cc(/C=C/C(=O)O)ccc1O [Ferulic acid],Antifeedant activity,Dalbulus maidis,Antifeedant activity in adults at 400 ppm (in vitro bioassay)
same,Oviposition deterrence,"Choristoneura fumiferana; 7.8 nmol/cm^2, dual choice bioassay",Oviposition deterrent 7.8 nmol/cm^2 (dual choice bioassay)
same,Sieve element salvation,Sitobion avanae [8]; 2.5 mM,Reduced sieve element salvation at 2.5 mM
same,Reproductive period and daily fecundity,Sitobion avanae [10],Prolonged reproductive period and reduced daily fecundity
same,Mortality of newly hatched larvae,Sitodiplosis mosellana,Constitutive levels exceeding 0.35 µg/g fresh weight (1.57 µg/g dry weight) increased mortality of newly hatched larvae
same,Knockdown effect (mobility and mortality),"Acanthoscelides obtectus; day 8, in vitro bioassay",Knockdown effect: reduced mobility and increased mortality of adults at day 8 (in vitro bioassay)
O=C(O)C=Cc1ccc(O)cc1 [p-Coumaric acid],Antifeedant activity,Dalbulus maidis,Antifeedant activity in adults at 400 ppm (in vitro bioassay)
same,Oviposition deterrence,Etiella zinckenella,Oviposition deterrent at 0.5 mg
same,Phloem sap ingestion,Sitobion avanae [8]; concentration not given,Reduction ingestion of phloem sap
O=C(O)/C=C/c1ccc(O)c(O)c1 [Caffeic acid],Prooxidant effect on midgut proteins,Helicoverpa zea [11]; chronic exposure,oxidative stress in midgut proteins
same,"Development rate, survivorship and pupal weight",Helicoverpa zea [11],"Development rate, survivorship and pupal weight negatively influenced"
same,Body weight and survival,Helicoverpa armigera [12]; range of 50–200 ppm,Body weight and survival significantly reduced
same,Mode of action,Helicoverpa armigera [12],Protease inhibitor
same,Phloem sap ingestion,Sitobion avanae [8]; 2.5 mM,Reduction of phloem sap ingestion at 2.5 mM
same,Knockdown effect (mobility and mortality),Acanthoscelides obtectus; in vitro bioassay,Knockdown effect: reduced mobility and increased mortality in adults (in vitro bioassay)
"O=c1c(O[C@@H]2O[C@H](CO)[C@@H](O)[C@H](O)[C@H]2O)c(-c2ccc(O)cc2)oc2cc(O[C@@H]3O[C@H](CO)[C@@H](O)[C@H](O)[C@H]3O)cc(O)c12 [Kaempferol-3,7-diglucoside]",Feeding deterrence,Mamestra configurata,"Kaempferol-3,7-diglucoside acts as feeding deterrent when applied at concentration > endogenous levels; 0.05–0.45 µmol per leaf disk (choice feeding assay)"
COc1cc2ccc(=O)oc2cc1O [Scopoletin],Antifeedant and growth inhibitory activity,Spilarctia obliqua,Antifeedant and growth inhibitor. At 250 µg/g deterrence and growth inhibition was similar to that of azadirachtin
same,"Antibiosis (growth inhibitor), concentration in diet",Plutella xylostella,> 2500 µg/g diet
same,LD50,Plutella xylostella,~8300 µg/mL
same,Feeding deterrence (preference),Zygogramma exclamationis,Phytoalexin: feeding deterrent. Topical application of 100 µg/ml reduces preference
same,Phloem sap ingestion,Sitobion avanae [8]; 2.5 mM,Reduced ingestion of phloem sap at 2.5 mM
same,Termicidal and antifeedant effects,Coptotermes formosanus,Termicidal and antifeedant effects at 5 µmol
same,Repellent activity,Anopheles arabiensis,Repellent activity at 100 µg/ml
O=c1cc(-c2ccc(O)c(O)c2)oc2cc(O[C@@H]3O[C@H](CO)[C@@H](O)[C@H](O)[C@H]3O)cc(O)c12 [Luteolin-7-glucoside],Knockdown effect (mobility and mortality),Acanthoscelides obtectus; in vitro bioassay,Toxin: knockdown effect: reduced mobility and increased mortality
O=c1cc(-c2ccc(O)c(O)c2)oc2cc(O)cc(O)c12 [Luteolin],Anti-herbivory activity,Spodoptera exigua,no anti-herbivory activity was observed
same,Feeding,Spodoptera exigua,marginally stimulating feeding
same,Solubility,"[5]; 1,2-propanediol: choline chloride: water (1:1:1), water 7.71%, 24 h at 50 °C, mean ± SD, n = 3",13.08 ± 0.86 mg/g
same,Solubility enhancement with NADES compared to aqueous solubility,[5]; NADES of Table 4 versus water (Table 2),> 95 fold
same,Mortality of first instar larvae,[9],Significant increase in mortality of first instar larvae at 25% of natural plant concentrations (0.53 mg/g)
same,Probing and feeding deterrence,Acyrthosiphon pisum,Probing and feeding deterrent at 100 µg cm^−3
O=c1cc(-c2ccc(O)c(O)c2)oc2cc(O[C@@H]3O[C@H](CO)[C@@H](O)[C@H](O)[C@H]3O[C@@H]3OCC(O)(CO)[C@H]3O)cc(O)c12 (stereo partly drawn) [Luteolin 7-O-β -D-apiofranosyl-(1→2)-β-D-glucopyranoside],Ovipositional deterrence,Liriomyza trifolii,Ovipositional deterrent at 4.90 µg/cm^2
